By EC50 is commonly meant the concentration that produces a half-maximal response.

Counter-ions that a name gives are not always drawn.

This assay concerns the target T1, recombinant human TGR5 (Homo sapiens, UniProt Q8TDU6).
T1 construct: expressed in transfected cells
T1 sequence (Q8TDU6 1-330): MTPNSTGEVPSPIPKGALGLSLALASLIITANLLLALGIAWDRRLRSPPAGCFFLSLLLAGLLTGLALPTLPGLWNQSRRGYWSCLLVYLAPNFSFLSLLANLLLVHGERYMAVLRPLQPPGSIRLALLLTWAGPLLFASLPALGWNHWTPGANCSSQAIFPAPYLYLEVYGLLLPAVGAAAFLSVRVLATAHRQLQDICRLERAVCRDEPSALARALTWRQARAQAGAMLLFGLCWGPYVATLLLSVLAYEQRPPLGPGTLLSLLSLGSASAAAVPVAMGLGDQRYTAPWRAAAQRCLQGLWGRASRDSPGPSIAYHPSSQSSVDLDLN
Briefly: cAMP assay (cAMP accumulation, HTRF) in CHOK1 cells stably expressing TGR5. The class given is cell-based. The conditions noted are these: CHOK1 cells stably expressing human TGR5, 30 minutes at RT, 1% DMSO. The protocol: The in vitro modulation of recombinant human TGR5 was determined as follows.
A human TGR5 expression construct of human TGR5 was integrated into the genome of a CHOK1 cell line (Invitrogen). Once a stable CHOK1 cell line was generated, the cells were incubated for 5-10 minutes in culture medium consisting of F-12 (Invitrogen#11765-047) supplemented with 10% fetal bovine serum.
On the day of the cAMP accumulation assay, cells stably expressing the […] TGR5 construct were centrifuged at 1000 rpm for 5 minutes. The medium was aspirated and the cells were resuspended in 5 mL of assay buffer (phosphate-buffered saline with Ca^2+ and Mg^2+, Invitrogen#14040). The cells were counted using 1:2 dilution and then adjusted to 0.4-0.5×10^6 cells/mL in assay buffer, if necessary. Isobutylmethylxanthine (IBMX, Sigma#I5879) was added via a 1:5000 dilution to make a 0.1 mM final concentration and then 10 μL of the media were transferred to each well of a 384 well poly-D-lysine coated solid white plate (BD #35-6661) pre-dotted with 100 nL of with the desired concentration of compound added from a concentrated stock dissolved in dimethyl sulfoxide (DMSO) to give a final concentration of 1% DMSO in the assay. The plates were covered and incubated for 30 minutes at RT. cAMP accumulation was measured using the CisBio homogeneous time resolved fluorescence (HTRF) assay kit (#62AM2PEC) following the manufacturer's protocol. Briefly, 5 μl each of the cAMP-HTRF fluorescence detection reagents were added to each well, and the samples were incubated for at least one hour at room temperature. Fluorescence was excited at 320 nm and measured at 665 and 620 nm using the Envision instrument (Perkin Elmer), the fluorescence ratio of 665/620 was calculated and converted to nanomolar concentrations of cAMP in each well by interpolation from a cAMP standard curve. The concentration-response curves and EC50 values were calculated with a four parameter logistic curve fit equation utilizing Excel/XLfit software (Microsoft and IDBS). The EC50 value was calculated as the concentration of agonist which increased the cAMP concentration to a value halfway between the baseline and the maximum.
In general terms: Cyclic AMP is a second messenger, typically raised through Gs and lowered through Gi signalling.
Consider `Cc1c(Cl)cccc1OCCCC(=O)N1CCCOc2c(-c3cnn(Cc4c(F)cc(C(=O)NCCS(=O)(=O)O)cc4Cl)c3)cccc21` [Example 703, 2-(3-Chloro-4-((4-(5-(4-(3-chloro-2-methylphenoxy)butanoyl)-2,3,4,5-tetrahydrobenzo[b][1,4]oxazepin-9-yl)-1H-pyrazol-1-yl)methyl)-5-fluorobenzamido)ethanesulfonic acid], for which the EC50 stood at 46 nM.
In the case of `Cc1c(Cl)cccc1OCCCC(=O)N1Cc2ccccc2Oc2c(-c3cnn(Cc4c(F)cc(C(=O)NCCC(=O)O)cc4Cl)c3)cccc21` [Example 784, 3-(3-Chloro-4-((4-(10-(4-(3-chloro-2-methylphenoxy)butanoyl)-10,11-dihydrodibenzo[b,f][1,4]oxazepine-6-yl)-1H-pyrazol-1-yl)methyl)-5-fluorobenzamido)propanoic acid] it was 200 nM; in that of `Cc1cccc(N(CCCC(=O)N2CCCc3c(-c4cnn(Cc5cccc(C(=O)O)c5)c4)cccc32)C(=O)OC(C)(C)C)c1C` [Example 933, 3-((4-(1-(4-(tert-Butoxycarbonyl(2,3-dimethylphenyl)amino)butanoyl)-1,2,3,4-tetrahydroquinolin-5-yl)-1H-pyrazol-1-yl)methyl)benzoic acid], 1610 nM; in that of `Cc1c(Cl)cccc1OCCCC(=O)N1C[C@@H]2C[C@@H]2c2c(-c3cnn(Cc4cccc(N5C(=O)CN(CC(=O)O)C5=O)c4)c3)cccc21` [Example 350, 2-(3-(3-((4-((1aR,7bS)-3-(4-(3-Chloro-2-methylphenoxy)butanoyl)-1a,2,3,7b-tetrahydro-1H-cyclopropa[c]quinolin-7-yl)-1H-pyrazol-1-yl)methyl)phenyl)-2,4-dioxoimidazolidin-1-yl) acetic acid], 31 nM.
Turning to `Cc1cccc(OCCCC(=O)N2CCCc3c(-c4cccc(COC(=O)NC(Cc5c[nH]cn5)C(=O)O)c4)cccc32)c1C` (stereo not drawn) [Example 283, 2-((3-(1-(4-(2,3-Dimethylphenoxy)butanoyl)-1,2,3,4-tetrahydroquinolin-5-yl)benzyloxy)carbonylamino)-3-(1H-imidazol-4-yl)propanoic acid], the EC50 came to 3180 nM.
In the case of `Cc1c(Cl)cccc1OCCCC(=O)N1C[C@@H]2C[C@@H]2c2c(-c3cnn(Cc4cccc(C(=O)NCC(=O)O)c4)c3)cccc21` (single isomer, unassigned) [Example 244] it was 46 nM.
In the case of `Cc1cccc(OCCCC(=O)N2CCCc3c(-c4cnn(Cc5cccc(C(=O)N6CCC(CO)CC6)c5)c4)cccc32)c1C` [Example 836, 4-(2,3-Dimethylphenoxy)-1-(5-(1-(3-(4-(hydroxymethyl)piperidine-1-carbonyl)benzyl)-1H-pyrazol-4-yl)-3,4-dihydroquinolin-1(2H)-yl)butan-1-one] it was 173 nM.
With `Cc1cccc(OCCCC(=O)N2C[C@@H]3C[C@@H]3c3c(-c4cnn(Cc5cccc(C(=O)NCCS(=O)(=O)O)c5)c4)cccc32)c1C` (single isomer, unassigned) [Example 240], the EC50 was determined as 49 nM.
As for `Cc1cccc(OCCCC(=O)N2CCCc3c(-c4cccc(COC(=O)N[C@H](CO)C(=O)O)c4)cccc32)c1C` [Example 282, (R)-2-((3-(1-(4-(2,3-Dimethylphenoxy)butanoyl)-1,2,3,4-tetrahydroquinolin-5-yl)benzyloxy)carbonylamino)-3-hydroxypropanoic acid], the EC50 turned out to be 664 nM.
In the case of `Cc1c(Cl)cccc1OCCCC(=O)N1CCSc2c(-c3cnn(Cc4cccc(C(=O)O)c4)c3)cccc21` [Example 354, 3-((4-(4-(4-(3-Chloro-2-methylphenoxy)butanoyl)-3,4-dihydro-2H-benzo[b] [1,4]thiazin-8-yl)-1H-pyrazol-1-yl)methyl)benzoic acid] it was 40 nM; in that of `Cc1cccc(OCCCC(=O)N2CCCc3c(-c4cnn(Cc5cncc(C(=O)O)c5)c4)cccc32)c1C` [Example 359, 5-((4-(1-(4-(2,3-Dimethylphenoxy)butanoyl)-1,2,3,4-tetrahydroquinolin-5-yl)-1H-pyrazol-1-yl)methyl) nicotinic acid, TFA salt], 1650 nM; in that of `Cc1cccc(OCCCC(=O)N2CCCc3c(-c4cnn(Cc5cccc(C(=O)N(C)[C@@H](CC(=O)O)C(=O)O)c5)c4)cccc32)c1C` [Example 481, (S)-2-(3-((4-(1-(4-(2,3-Dimethylphenoxy)butanoyl)-1,2,3,4-tetrahydroquinolin-5-yl)-1H-pyrazol-1-yl)methyl)-N-methylbenzamido)succinic acid], 1530 nM.
Take `Cc1c(Cl)cccc1OCCCC(=O)N1CCCOc2c(-c3cnn(Cc4cccc(NS(=O)(=O)c5cccc(C(=O)O)c5)c4)c3)cccc21` [Example 506, 3-(N-(3-((4-(5-(4-(3-Chloro-2-methylphenoxy)butanoyl)-2,3,4,5-tetrahydrobenzo [b][1,4]oxazepin-9-yl)-1H-pyrazol-1-yl)methyl)phenyl)sulfamoyl) benzoic acid]: the EC50 worked out at 1610 nM.
Regarding `Cc1cccc(OCCCC(=O)N2CCCc3c(-c4nnn(Cc5cccc(C(=O)O)c5)n4)cccc32)c1C` [Example 112, 3-((5-(1-(4-(2,3-Dimethylphenoxy)butanoyl)-1,2,3,4-tetrahydroquinolin-5-yl)-2H-tetrazol-2-yl)methyl)benzoic acid], the EC50 came to 145 nM.
Regarding `COC(=O)c1ccc(O)c(Cn2cc(-c3cccc4c3[C@H]3C[C@H]3CN4C(=O)OCCOc3cccc(Cl)c3C)cn2)c1` [Example 447, (1aR,7bS)-2-(3-Chloro-2-methylphenoxy)ethyl 7-(1-(2-hydroxy-5-(methoxycarbonyl)benzyl)-1H-pyrazol-4-yl)-1a,2-dihydro-1H-cyclopropa[c] quinoline-3(7bH)-carboxylate], the EC50 came out at 1590 nM.
With `Cc1cccc(OCCCC(=O)N2CCCc3c(-c4cnn(C(C)c5cccc(NC(=O)NCS(=O)(=O)O)c5)c4)cccc32)c1C` (stereo not drawn) [Example 81, (3-(3-(1-(4-(1-(4-(2,3-Dimethylphenoxy)butanoyl)-1,2,3,4-tetrahydroquinolin-5-yl)-1H-pyrazol-1-yl)ethyl)phenyl)ureido)methanesulfonic acid] the figure was 670 nM; with `Cc1c(Cl)cccc1OCCCC(=O)N1CCSc2c(-c3cnn(Cc4cccc(C(=O)N[C@@H](CC[N+](C)(C)C)C(=O)O)c4)c3)cccc21` [Example 617, (S)-3-Carboxy-3-(3-((4-(4-(4-(3-chloro-2-methylphenoxy)butanoyl)-3,4-dihydro-2H-benzo[b][1,4]thiazin-8-yl)-1H-pyrazol-1-yl)methyl)benzamido)-N,N,N-trimethylpropan-1-aminium, TFA salt], 175 nM.
Consider `Cc1cccc(OCCCC(=O)N2CCCc3c(-c4cnn(Cc5cccc(C(=O)N[C@@H](C)C(=O)O)c5)c4)cccc32)c1C` [Example 864, (S)-2-(3-((4-(1-(4-(2,3-Dimethylphenoxy)butanoyl)-1,2,3,4-tetrahydroquinolin-5-yl)-1H-pyrazol-1-yl)methyl)benzamido)propanoic acid], for which the EC50 came out at 193 nM.
With `Cc1cccc(OCCCC(=O)N2CCSc3c(-c4cnn(Cc5c(F)cc(C(=O)NCC(=O)O)cc5Cl)c4)cccc32)c1C` [Example 576, 2-(3-Chloro-4-((4-(4-(4-(2,3-dimethylphenoxy)butanoyl)-3,4-dihydro-2H-benzo[b][1,4]thiazin-8-yl)-1H-pyrazol-1-yl)methyl)-5-fluorobenzamido) acetic acid] the figure was 48 nM.
For `Cc1cccc(OCCCC(=O)N2CCCc3c(-c4cnn(Cc5c(F)cc(C(=O)NCS(=O)(=O)O)cc5Cl)c4)cccc32)c1C` [Example 179, (3-Chloro-4-((4-(1-(4-(2,3-dimethylphenoxy)butanoyl)-1,2,3,4-tetrahydroquinolin-5-yl)-1H-pyrazol-1-yl)methyl)-5-fluorobenzamido)methanesulfonic acid], the EC50 was found to be 45 nM.
On to `Cc1c(Cl)cccc1OCCOC(=O)N1C[C@@H]2C[C@@H]2c2c(-c3cnn(Cc4cc(C(=O)NCC5(C(=O)O)CC5)ccc4Cl)c3)cccc21` [Example 699, 1-((4-Chloro-3-((4-((1aR,7bS)-3-((2-(3-chloro-2-methylphenoxy)ethoxy)carbonyl)-1a,2,3,7b-tetrahydro-1H-cyclopropa[c]quinolin-7-yl)-1H-pyrazol-1-yl)methyl)benzamido)methyl) cyclopropanecarboxylic acid], for which the EC50 stood at 41 nM.

The values are drawn from patent US9062028B2, “Bicyclic nitrogen containing heteroaryl TGR5 receptor modulators” (Bristol-Myers Squibb Company, priority 2011, dated 2015).
